# Measurements published in patent publication US12559492B2, “BRAF degraders” (C4 Therapeutics, Inc., priority 2020, dated 2026).
# Biological target: BRAF^V600E protein (Homo sapiens, UniProt P15056, V600E)
# Assay: HiBiT cellular BRAF V600E degradation assay
# Assay type: cell-based
# Conditions: 24 h incubation; for DC50: A375.10 cells (HiBiT tag knocked in at N-terminal of BRAF V600E), concentration at which 50% of total cellular BRAF V600E is degraded; for Emax: A375.10 cells, Emax = amount of residual protein remaining in the cell after compound treatment, read-out: HiBit 24 h Emax
# Sequence of BRAF^V600E protein (P15056 whole entry V600E): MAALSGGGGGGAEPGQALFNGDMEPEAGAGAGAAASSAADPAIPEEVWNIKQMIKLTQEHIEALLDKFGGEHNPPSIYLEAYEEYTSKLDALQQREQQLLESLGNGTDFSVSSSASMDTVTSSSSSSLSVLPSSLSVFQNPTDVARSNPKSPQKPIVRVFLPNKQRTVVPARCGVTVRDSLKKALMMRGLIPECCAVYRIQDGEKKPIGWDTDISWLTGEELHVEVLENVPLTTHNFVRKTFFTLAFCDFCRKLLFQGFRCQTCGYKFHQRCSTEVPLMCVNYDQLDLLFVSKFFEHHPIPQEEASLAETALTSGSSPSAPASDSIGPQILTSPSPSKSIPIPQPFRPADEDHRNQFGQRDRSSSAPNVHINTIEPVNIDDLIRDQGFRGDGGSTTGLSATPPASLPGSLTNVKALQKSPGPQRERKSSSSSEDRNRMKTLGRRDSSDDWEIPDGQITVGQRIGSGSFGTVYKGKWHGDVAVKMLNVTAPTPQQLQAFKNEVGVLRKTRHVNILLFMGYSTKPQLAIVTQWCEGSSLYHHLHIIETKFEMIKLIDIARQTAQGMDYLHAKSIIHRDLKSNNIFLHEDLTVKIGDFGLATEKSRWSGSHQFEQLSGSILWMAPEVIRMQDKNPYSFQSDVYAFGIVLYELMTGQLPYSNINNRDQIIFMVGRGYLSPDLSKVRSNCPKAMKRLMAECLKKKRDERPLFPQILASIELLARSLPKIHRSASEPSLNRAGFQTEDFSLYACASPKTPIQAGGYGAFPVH
SMILES,DC50 [nM],Emax [%]
"CCN(C)S(=O)(=O)Nc1cccc(C(=O)c2c[nH]c3ncc(-c4ccc(N5CCN(C(=O)CC6(O)CCN(c7ccc(NC8CCC(=O)NC8=O)cc7F)CC6)CC5)cc4)cc23)c1F (stereo not drawn) [Example 119, 5-[4-[4-[2-[1-[4-[(2,6-dioxo-3-piperidyl)amino]-2-fluoro-phenyl]-4-hydroxy-4-piperidyl]acetyl]piperazin-1-yl]phenyl]-3-[3-[[ethyl(methyl)sulfamoyl]amino]-2-fluoro-benzoyl]-1H-pyrrolo[2,3-b]pyridine]",8.71,10.5
"CCN(C)S(=O)(=O)Nc1cccc(C(=O)c2c[nH]c3ncc(-c4ccc(N5CCN(C(=O)CC6(O)CCN(c7ncc(NC8CCC(=O)NC8=O)cc7F)CC6)CC5)cc4)cc23)c1F (stereo not drawn) [Example 120, 5-[4-[4-[2-[1-[5-[(2,6-dioxo-3-piperidyl)amino]-3-fluoro-2-pyridyl]-4-hydroxy-4-piperidyl]acetyl]piperazin-1-yl]phenyl]-3-[3-[[ethyl(methyl)sulfamoyl]amino]-2-fluoro-benzoyl]-1H-pyrrolo[2,3-b]pyridine]",2.87,9.99
"CCN(C)S(=O)(=O)Nc1ccc(F)c(C(=O)c2c[nH]c3ncc(-c4cnc(N5CCN(C(=O)CN6CCC(c7ccc(NC8CCC(=O)NC8=O)cc7)CC6)CC5)nc4)cc23)c1Cl (stereo not drawn) [Example 121, 3-[2-chloro-3-[[ethyl(methyl)sulfamoyl]amino]-6-fluoro-benzoyl]-5-[2-[4-[2-[4-[4-[(2,6-dioxo-3-piperidyl)amino]phenyl]-1-piperidyl]acetyl]piperazin-1-yl]pyrimidin-5-yl]-1H-pyrrolo[2,3-b]pyridine]",2.3,4.98
"CCN(C)S(=O)(=O)Nc1ccc(F)c(C(=O)c2c[nH]c3ncc(-c4cnc(N5CCN(C(=O)CN6CCC(c7ccc(NC8CCC(=O)NC8=O)cc7)CC6)CC5)nc4)cc23)c1C (stereo not drawn) [Example 123, 5-[2-[4-[2-[4-[4-[(2,6-dioxo-3-piperidyl)amino]phenyl]-1-piperidyl]acetyl]piperazin-1-yl]pyrimidin-5-yl]-3-[3-[[ethyl(methyl)sulfamoyl]amino]-6-fluoro-2-methyl-benzoyl]-1H-pyrrolo[2,3-b]pyridine]",46.4,11.7
"CCN(C)S(=O)(=O)Nc1ccc(F)c(C(=O)c2c[nH]c3ncc(C#CC4CCN(C(=O)CN5CCC(c6ccc(NC7CCC(=O)NC7=O)cc6F)CC5)CC4)cc23)c1F (stereo not drawn) [Example 124, 5-[2-[1-[2-[4-[4-[(2,6-dioxo-3-piperidyl)amino]-2-fluoro-phenyl]-1-piperidyl]acetyl]-4-piperidyl]ethynyl]-3-[3-[[ethyl(methyl)sulfamoyl]amino]-2,6-difluoro-benzoyl]-1H-pyrrolo[2,3-b]pyridine]",22.1,13
"CCN(C)S(=O)(=O)Nc1ccc(F)c(C(=O)c2c[nH]c3ncc(-c4cnc(N5CCC(C(=O)N6CCC(c7ccc(NC8CCC(=O)NC8=O)cc7)CC6)CC5)nc4)cc23)c1F (stereo not drawn) [Example 127, 5-[2-[4-[4-[4-[(2,6-dioxo-3-piperidyl)amino]phenyl]piperidine-1-carbonyl]-1-piperidyl]pyrimidin-5-yl]-3-[3-[[ethyl(methyl)sulfamoyl]amino]-2,6-difluoro-benzoyl]-1H-pyrrolo[2,3-b]pyridine]",13.2,7.62
"CCN(C)S(=O)(=O)Nc1ccc(F)c(C(=O)c2c[nH]c3ncc(-c4cnc(N5CCC(C(=O)NC6CCN(c7ccc(NC8CCC(=O)NC8=O)cc7F)CC6)CC5)nc4)cc23)c1F (stereo not drawn) [Example 128, N-[1-[4-[(2,6-dioxo-3-piperidyl)amino]-2-fluoro-phenyl]-4-piperidyl]-1-[5-[3-[3-[[ethyl(methyl)sulfamoyl]amino]-2,6-difluoro-benzoyl]-1H-pyrrolo[2,3-b]pyridin-5-yl]pyrimidin-2-yl]piperidine-4-carboxamide]",20.9,14.6
"CCN(C)S(=O)(=O)Nc1ccc(F)c(C(=O)c2c[nH]c3ncc(-c4cnc(N5CC[C@@H](C(=O)N6CCC(c7ccc(NC8CCC(=O)NC8=O)cc7)CC6)C5)nc4)cc23)c1F (stereo partly drawn) [Example 129, 5-[2-[(3R)-3-[4-[4-[(2,6-dioxo-3-piperidyl)amino]phenyl]piperidine-1-carbonyl]pyrrolidin-1-yl]pyrimidin-5-yl]-3-[3-[[ethyl(methyl)sulfamoyl]amino]-2,6-difluoro-benzoyl]-1H-pyrrolo[2,3-b]pyridine]",5.11,13.8
"CCN(C)S(=O)(=O)Nc1ccc(F)c(C(=O)c2c[nH]c3ncc(-c4cnc(N5CC[C@H](C(=O)N6CCC(c7ccc(NC8CCC(=O)NC8=O)cc7)CC6)C5)nc4)cc23)c1F (stereo partly drawn) [Example 130, 5-[2-[(3S)-3-[4-[4-[(2,6-dioxo-3-piperidyl)amino]phenyl]piperidine-1-carbonyl]pyrrolidin-1-yl]pyrimidin-5-yl]-3-[3-[[ethyl(methyl)sulfamoyl]amino]-2,6-difluoro-benzoyl]-1H-pyrrolo[2,3-b]pyridine]",9.73,12.9
"CCN(C)S(=O)(=O)Nc1ccc(F)c(C(=O)c2c[nH]c3ncc(-c4cnc(N5CC[C@@H](CC(=O)N6CCC(c7ccc(NC8CCC(=O)NC8=O)cc7)CC6)C5)nc4)cc23)c1F (stereo partly drawn) [Example 131, 5-[2-[(3S)-3-[2-[4-[4-[(2,6-dioxo-3-piperidyl)amino]phenyl]-1-piperidyl]-2-oxo-ethyl]pyrrolidin-1-yl]pyrimidin-5-yl]-3-[3-[[ethyl(methyl)sulfamoyl]amino]-2,6-difluoro-benzoyl]-1H-pyrrolo[2,3-b]pyridine]",27.1,21.2
"CCN(C)S(=O)(=O)Nc1ccc(F)c(C(=O)c2c[nH]c3ncc(-c4cnc(N5CC6(CC(C(=O)N7CCC(c8ccc(NC9CCC(=O)NC9=O)cc8)CC7)C6)C5)nc4)cc23)c1F (stereo not drawn) [Example 132, 5-[2-[6-[4-[4-[(2,6-dioxo-3-piperidyl)amino]phenyl]piperidine-1-carbonyl]-2-azaspiro[3.3]heptan-2-yl]pyrimidin-5-yl]-3-[3-[[ethyl(methyl)sulfamoyl]amino]-2,6-difluoro-benzoyl]-1H-pyrrolo[2,3-b]pyridine]",18.2,12
"CCN(C)S(=O)(=O)Nc1ccc(F)c(C(=O)c2c[nH]c3ncc(-c4cnc(N5CC6(CC(CC(=O)N7CCC(c8ccc(NC9CCC(=O)NC9=O)cc8)CC7)C6)C5)nc4)cc23)c1F (stereo not drawn) [Example 133, 5-[2-[6-[2-[4-[4-[(2,6-dioxo-3-piperidyl)amino]phenyl]-1-piperidyl]-2-oxo-ethyl]-2-azaspiro[3.3]heptan-2-yl]pyrimidin-5-yl]-3-[3-[[ethyl(methyl)sulfamoyl]amino]-2,6-difluoro-benzoyl]-1H-pyrrolo[2,3-b]pyridine]",14.7,11.4
"CCN(C)S(=O)(=O)Nc1ccc(F)c(C(=O)c2c[nH]c3ncc(-c4cnc(N5CCC(CC(=O)NC6CCN(c7ccc(NC8CCC(=O)NC8=O)cc7F)CC6)CC5)nc4)cc23)c1F (stereo not drawn) [Example 134, N-[1-[4-[(2,6-dioxo-3-piperidyl)amino]-2-fluoro-phenyl]-4-piperidyl]-2-[1-[5-[3-[3-[[ethyl(methyl)sulfamoyl]amino]-2,6-difluoro-benzoyl]-1H-pyrrolo[2,3-b]pyridin-5-yl]pyrimidin-2-yl]-4-piperidyl]acetamide]",18.9,11
"CCN(C)S(=O)(=O)Nc1ccc(F)c(C(=O)c2c[nH]c3ncc(-c4cnc(N5CCC(NC(=O)C6CCN(c7ccc(NC8CCC(=O)NC8=O)cc7F)CC6)CC5)nc4)cc23)c1F (stereo not drawn) [Example 136, 1-[4-[(2,6-dioxo-3-piperidyl)amino]-2-fluoro-phenyl]-N-[1-[5-[3-[3-[[ethyl(methyl)sulfamoyl]amino]-2,6-difluoro-benzoyl]-1H-pyrrolo[2,3-b]pyridin-5-yl]pyrimidin-2-yl]-4-piperidyl]piperidine-4-carboxamide]",3.26,7.37
"CCN(C)S(=O)(=O)Nc1ccc(F)c(C(=O)c2c[nH]c3ncc(-c4cnc(N5CCN(C(=O)NC6CCN(c7ccc(NC8CCC(=O)NC8=O)cc7F)CC6)CC5)nc4)cc23)c1F (stereo not drawn) [Example 138, N-[1-[4-[(2,6-dioxo-3-piperidyl)amino]-2-fluoro-phenyl]-4-piperidyl]-4-[5-[3-[3-[[ethyl(methyl)sulfamoyl]amino]-2,6-difluoro-benzoyl]-1H-pyrrolo[2,3-b]pyridin-5-yl]pyrimidin-2-yl]piperazine-1-carboxamide]",10.5,7.71
"CCN(C)S(=O)(=O)Nc1ccc(F)c(C(=O)c2c[nH]c3ncc(-c4ccc(N5CCN(C(=O)NC6CCN(c7ccc(NC8CCC(=O)NC8=O)cc7F)CC6)CC5)nc4)cc23)c1F (stereo not drawn) [Example 140, N-[1-[4-[(2,6-dioxo-3-piperidyl)amino]-2-fluoro-phenyl]-4-piperidyl]-4-[5-[3-[3-[[ethyl(methyl)sulfamoyl]amino]-2,6-difluoro-benzoyl]-1H-pyrrolo[2,3-b]pyridin-5-yl]-2-pyridyl]piperazine-1-carboxamide]",15.2,8.77
"CCN(C)S(=O)(=O)Nc1cccc(C(=O)c2c[nH]c3ncc(-c4cnc(N5CCN(C(=O)NC6CCN(c7ccc(NC8CCC(=O)NC8=O)cc7F)CC6)CC5)nc4)cc23)c1F (stereo not drawn) [Example 141, N-[1-[4-[(2,6-dioxo-3-piperidyl)amino]-2-fluoro-phenyl]-4-piperidyl]-4-[5-[3-[3-[[ethyl(methyl)sulfamoyl]amino]-2-fluoro-benzoyl]-1H-pyrrolo[2,3-b]pyridin-5-yl]pyrimidin-2-yl]piperazine-1-carboxamide]",2.84,7.91
"CCN(C)S(=O)(=O)Nc1ccc(F)c(C(=O)c2c[nH]c3ncc(-c4ccc(N5CCN(CCN6CCC(c7ccc(NC8CCC(=O)NC8=O)cc7)CC6)CC5)nc4)cc23)c1F (stereo not drawn) [Example 143, 5-[6-[4-[2-[4-[4-[(2,6-dioxo-3-piperidyl)amino]phenyl]-1-piperidyl]ethyl]piperazin-1-yl]-3-pyridyl]-3-[3-[[ethyl(methyl)sulfamoyl]amino]-2,6-difluoro-benzoyl]-1H-pyrrolo[2,3-b]pyridine]",4.04,11.5
